Converted amounts (≈) assume the structure as drawn. Like-named read-outs stand apart in the source and are kept apart here.
Tests used:
M. tuberculosis = test: MIC against M. tuberculosis, microplate Alamar Blue assay (MABA); assay type: cell-based, Mycobacterium tuberculosis; design: MIC90: unit not given beside the values; settings: for MIC: Mycobacterium tuberculosis; for MIC90: MABA, Table 3, unit not given; for anti-M.tb potency relative to rifampin and isoniazid (in words): MIC data of Table 3
Protocol: MICs against M. tuberculosis. The MIC was defined as the minimum concentration of the compound required to achieve a reduction in fluorescence by 90% relative to the untreated bacterial controls. The anti-TB activity was determined by the microplate Alamar Blue assay (MABA) as previously described (Choules et al., Antimicrob. Agents Chemother. 2019, 63, e02204-02218).

Mycobacterial ClpC1-NTD = target: T1, Mycobacterial ClpC1-NTD (Mycobacterium tuberculosis, UniProt P9WPC9); test: SPR binding affinity to ClpC1-NTD
T1 construct: caseinolytic protein C1 (ClpC1) N-terminal domain (NTD)
Protocol: (§1) Analysis of binding affinity to Mycobacterial ClpC1-NTD and FL by SPR. SPR binding assay was performed using a previously reported method (Choules et al., Antimicrob. Agents Chemother. 2019, 63, e02204-02218; Wolf et al., ACS Infect. Dis. 2019, 5, 829-840). Kinetic rate constants (ka and kd) were determined by fitting the double-reference data globally to the 1:1 Langmuir model embedded in the Biacore T200 evaluation software (v3.0). KD values were then calculated from the two rate constants (KD=kd/ka). Smaller KD values represent tighter binding affinities.

Mycobacterial ClpC1 FL = target: T2, Mycobacterial ClpC1 FL (Mycobacterium tuberculosis, UniProt P9WPC9); test: SPR binding affinity to ClpC1 full-length protein (FL)
T2 construct: N-terminal domain (NTD) and the full-length protein (FL) by surface plasmon resonance (SPR)
T2 sequence (P9WPC9 whole entry, the tested form may be a part): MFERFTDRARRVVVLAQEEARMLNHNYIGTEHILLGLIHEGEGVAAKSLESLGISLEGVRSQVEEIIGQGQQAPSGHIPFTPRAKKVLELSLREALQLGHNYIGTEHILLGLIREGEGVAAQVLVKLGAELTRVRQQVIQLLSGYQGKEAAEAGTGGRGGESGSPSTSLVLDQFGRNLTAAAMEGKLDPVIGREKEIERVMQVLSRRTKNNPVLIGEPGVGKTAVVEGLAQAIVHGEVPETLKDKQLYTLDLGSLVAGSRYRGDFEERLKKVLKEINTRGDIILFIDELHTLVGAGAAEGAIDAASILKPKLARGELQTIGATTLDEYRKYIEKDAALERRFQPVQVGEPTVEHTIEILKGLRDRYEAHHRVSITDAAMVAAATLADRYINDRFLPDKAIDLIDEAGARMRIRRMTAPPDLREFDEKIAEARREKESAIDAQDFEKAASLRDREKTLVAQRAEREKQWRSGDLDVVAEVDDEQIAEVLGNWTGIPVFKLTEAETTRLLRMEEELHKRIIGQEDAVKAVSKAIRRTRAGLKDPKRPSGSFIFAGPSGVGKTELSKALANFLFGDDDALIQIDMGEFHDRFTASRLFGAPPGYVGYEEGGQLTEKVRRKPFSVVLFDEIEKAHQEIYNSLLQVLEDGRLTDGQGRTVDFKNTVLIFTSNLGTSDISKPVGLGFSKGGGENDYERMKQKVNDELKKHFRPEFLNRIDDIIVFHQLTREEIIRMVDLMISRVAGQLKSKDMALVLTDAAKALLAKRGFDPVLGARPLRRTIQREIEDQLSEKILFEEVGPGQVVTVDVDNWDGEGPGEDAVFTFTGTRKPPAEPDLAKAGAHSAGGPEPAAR
Protocol: as §1

[1] = Interconversion (epimerization) of rufomycin diastereomers, HPLC analysis; assay type: physicochemical; settings: for interconversion / stability of diastereomers (in words): HPLC analysis, hemi-aminal epimers
Source text: The rufomycins 32-35 were identified as four diastereomers, arising from different orientations of the hydroxyl and methyl groups in the hydroxy-methyl piperidinone moiety. Rufomycin 32 was assigned the (AA5, 4S,5R) absolute configuration based on the ROESY correlations, and further confirmed by the cocrystal structures of rufomycin 32 and ClpC1-NTD. Thus, rufomycin 32 is that congener previously identified as ilamycin, Compound 4, and ilamycin C1 (PCT/US2000/015044). […] The assigned 4S,5S (AA5) absolute configuration for rufomycin 33 was validated by the ROESY correlations. Rufomycin 34 with the absolute configuration 4R,5R (AA5) was established by the ROESY cross-peaks. […] After being purified by semi-prep HPLC, rufomycin 35 was concentrated under a stream of forced air and freeze drying to reduce interconversion.

[2] = target: caseinolytic protein C1 (ClpC1) N-terminal domain (NTD) (Mycobacterial (Mycobacterium tuberculosis by context)) (UniProt P9WPC9); test: SPR (Biacore T200), 1:1 Langmuir fit, KD=kd/ka
Chain of caseinolytic protein C1 (ClpC1) N-terminal domain (NTD) (Mycobacterial (Mycobacterium tuberculosis by context)) (P9WPC9 1-145 limits assumed): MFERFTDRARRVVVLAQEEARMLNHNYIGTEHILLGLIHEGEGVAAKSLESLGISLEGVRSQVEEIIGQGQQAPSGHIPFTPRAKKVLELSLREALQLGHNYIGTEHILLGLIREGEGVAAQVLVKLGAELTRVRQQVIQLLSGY

[3] = target: caseinolytic protein C1 (ClpC1) full-length protein (FL) (Mycobacterial (Mycobacterium tuberculosis by context)) (UniProt P9WPC9); test: SPR (Biacore T200), 1:1 Langmuir fit, KD=kd/ka
Chain of caseinolytic protein C1 (ClpC1) full-length protein (FL) (Mycobacterial (Mycobacterium tuberculosis by context)) (P9WPC9 whole entry, the tested form may be a part): as the sequence (P9WPC9 whole entry, the tested form may be a part) above

[4] = ClpC1 N-terminal domain, KD=kd/ka, Table 1, read-out: SPR KD NTD
[5] = ClpC1 full-length protein, KD=kd/ka, Table 1, read-out: SPR KD FL
[6] = SPR, ClpC1 N-terminal domain, Table 3, unit inferred, read-out: KD NTD
[7] = SPR, ClpC1 full-length protein, Table 3, unit inferred, read-out: KD FL

| Compound | MIC (M. tuberculosis) [µM] | Kd (Mycobacterial ClpC1-NTD; [4]) [nM] | Kd (Mycobacterial ClpC1 FL; [5]) [nM] | MIC90 (M. tuberculosis) | Kd (Mycobacterial ClpC1-NTD; [6]) [nM] | Kd (Mycobacterial ClpC1 FL; [7]) [nM] | further results |
| --- | --- | --- | --- | --- | --- | --- | --- |
| C/C=C/C[C@@H]1NC(=O)[C@H](CC(C)C)N2C=C(C)C[C@@H](C2=O)N(C)C(=O)[C@H](C)NC(=O)[C@H](Cc2ccc(OC(=O)c3ccccc3)c([N+](=O)[O-])c2)NC(=O)[C@H](CC(C)C)N(C)C(=O)[C@H](Cc2cn(C(C)(C)[C@H](O)CCl)c3ccccc23)NC1=O [Compound 17] | 0.0529 (≈ 0.0616 µg/mL) |  |  |  |  |  | Kd (Mycobacterial ClpC1-NTD): 1250 nM; Kd (Mycobacterial ClpC1 FL): 2030 nM |
| C/C=C/C[C@@H]1NC(=O)[C@H](CC(C)C)N2C=C(C)C[C@@H](C2=O)N(C)C(=O)[C@H](C)NC(=O)[C@H](Cc2ccc(O)c(N)c2)NC(=O)[C@H](CC(C)C)N(C)C(=O)[C@H](Cc2cn(C(C)(C)[C@H](O)CCl)c3ccccc23)NC1=O [Compound 19] | 0.887 (≈ 0.914 µg/mL) | 501 | 319 |  |  |  |  |
| C/C=C/C[C@@H]1NC(=O)[C@H](CC(C)C)N2C=C(C)C[C@@H](C2=O)N(C)C(=O)[C@H](C)NC(=O)[C@H](Cc2ccc3c(c2)N=C(C)CC(C)(C)O3)NC(=O)[C@H](CC(C)C)N(C)C(=O)[C@H](Cc2cn(C(C)(C)[C@H](O)CCl)c3ccccc23)NC1=O [Compound 20] | 0.782 (≈ 0.869 µg/mL) | 196 | 234 |  |  |  |  |
| C/C=C/C[C@@H]1NC(=O)[C@H](CC(C)C)N2C(=O)[C@H](CC(C)[C@H]2OC)N(C)C(=O)[C@H](C)NC(=O)[C@H](Cc2ccc(OC)c([N+](=O)[O-])c2)NC(=O)[C@H](CC(C)C)N(C)C(=O)[C@H](Cc2cn(C(C)(C)[C@H]3CO3)c3ccccc23)N(C)C1=O (stereo partly drawn) [Compound 24] | 0.0646 (≈ 0.07 µg/mL) | 451 | 513 |  |  |  |  |
| C/C=C/C[C@@H]1NC(=O)[C@H](CC(C)C)N2C(=O)[C@H](CC(C)[C@H]2O)N(C)C(=O)[C@H](C)NC(=O)[C@H](Cc2ccc(OC(C)=O)c([N+](=O)[O-])c2)NC(=O)[C@H](CC(C)C)N(C)C(=O)[C@H](Cc2cn(C(C)(C)[C@H]3CO3)c3ccccc23)NC1=O (stereo partly drawn) [Compound 25] | 0.0184 ± 0.006 (≈ 0.02 µg/mL) | 56 | 72.5 |  |  |  |  |
| C/C=C/C[C@@H]1NC(=O)[C@H](CC(C)C)N2C(=O)[C@H](CC(C)[C@H]2OC(C)=O)N(C)C(=O)[C@H](C)NC(=O)[C@H](Cc2ccc(OC(C)=O)c([N+](=O)[O-])c2)NC(=O)[C@H](CC(C)C)N(C)C(=O)[C@H](Cc2cn(C(C)(C)[C@H]3CO3)c3ccccc23)NC1=O (stereo partly drawn) [Compound 26] | 0.0089 ± 0.0036 (≈ 0.01 µg/mL) | 33.8 | 16 |  |  |  |  |
| C/C=C/C[C@@H]1NC(=O)[C@H](CC(C)C)N2C(=O)[C@H](CC(C)[C@H]2O)N(C)C(=O)[C@H](C)NC(=O)[C@H](Cc2ccc(OC)c([N+](=O)[O-])c2)NC(=O)[C@H](CC(C)C)N(C)C(=O)[C@H](Cc2cn(C(C)(C)[C@H]3CO3)c3ccccc23)NC1=O (stereo partly drawn) [Compound 29] | 0.0543 (≈ 0.0574 µg/mL) | 117 | 133 |  |  |  |  |
| C/C=C/C[C@@H]1NC(=O)[C@H](CC(C)C)N2C(=O)[C@H](CC(C)[C@H]2OC)N(C)C(=O)[C@H](C)NC(=O)[C@H](Cc2ccc(OC)c([N+](=O)[O-])c2)NC(=O)[C@H](CC(C)C)N(C)C(=O)[C@H](Cc2cn(C(C)(C)[C@H]3CO3)c3ccccc23)NC1=O (stereo partly drawn) [Compound 30] | 0.0058 (≈ 0.00621 µg/mL) | 55.5 | 75.1 |  |  |  |  |
| C/C=C/C[C@@H]1NC(=O)[C@H](CC(C)C)N2C(=O)[C@H](C[C@H](C)[C@H]2O)N(C)C(=O)[C@H](C)NC(=O)[C@H](Cc2ccc(O)c([N+](=O)[O-])c2)NC(=O)[C@H](CC(C)C)N(C)C(=O)[C@H](Cc2cn(C(C)(C)[C@H]3CO3)c3ccccc23)NC1=O [rufomycin 32] |  |  |  | 21 | 32 | 31 | anti-M.tb potency relative to rifampin and isoniazid (in words) (M. tuberculosis): higher potency than drugs rifampin and isoniazid; interconversion / stability of diastereomers (in words) [1]: interconvertible |
| C/C=C/C[C@@H]1NC(=O)[C@H](CC(C)C)N2C(=O)[C@H](C[C@H](C)[C@@H]2O)N(C)C(=O)[C@H](C)NC(=O)[C@H](Cc2ccc(O)c([N+](=O)[O-])c2)NC(=O)[C@H](CC(C)C)N(C)C(=O)[C@H](Cc2cn(C(C)(C)[C@H]3CO3)c3ccccc23)NC1=O [rufomycin 33] |  |  |  | 12 | 29 | 27 | anti-M.tb potency relative to rifampin and isoniazid (in words) (M. tuberculosis): higher potency than drugs rifampin and isoniazid; interconversion / stability of diastereomers (in words) [1]: interconvertible |
| C/C=C/C[C@@H]1NC(=O)[C@H](CC(C)C)N2C(=O)[C@H](C[C@@H](C)[C@H]2O)N(C)C(=O)[C@H](C)NC(=O)[C@H](Cc2ccc(O)c([N+](=O)[O-])c2)NC(=O)[C@H](CC(C)C)N(C)C(=O)[C@H](Cc2cn(C(C)(C)[C@H]3CO3)c3ccccc23)NC1=O [rufomycin 34] |  |  |  | 46 | 183 | 178 | conversion to rufomycin 35 ([1]; under aqueous conditions, slowly): ~5% |
| C/C=C/C[C@@H]1NC(=O)[C@H](CC(C)C)N2C(=O)[C@H](C[C@@H](C)[C@@H]2O)N(C)C(=O)[C@H](C)NC(=O)[C@H](Cc2ccc(O)c([N+](=O)[O-])c2)NC(=O)[C@H](CC(C)C)N(C)C(=O)[C@H](Cc2cn(C(C)(C)[C@H]3CO3)c3ccccc23)NC1=O [rufomycin 35] |  |  |  | 47 | 186 | 209 | interconversion / stability of diastereomers (in words) [1]: the most unstable diastereomer; epimerization to rufomycin 34 ([1]; during concentration, quickly): ~50% |
| rufomycins 1 and 2 mixture (peptide) |  |  |  |  |  |  | Kd [2]: 70 nM; Kd [3]: 70 nM |
